The results in this text go back to paper PMC2217675, “Quantitative High-Throughput Screen Identifies Inhibitors of the Schistosoma mansoni Redox Cascade” (PLoS Neglected Tropical Diseases, 2008).

Molecules are shown by their SMILES. Read-outs that look alike come from different tables or passages of the source.

Holding throughout (assay): biochemical
Assay [1] addresses T1, S. mansoni TGR/Prx2 (Schistosoma mansoni, UniProt Q962Y6).
T1 sequence (Q962Y6 1-598): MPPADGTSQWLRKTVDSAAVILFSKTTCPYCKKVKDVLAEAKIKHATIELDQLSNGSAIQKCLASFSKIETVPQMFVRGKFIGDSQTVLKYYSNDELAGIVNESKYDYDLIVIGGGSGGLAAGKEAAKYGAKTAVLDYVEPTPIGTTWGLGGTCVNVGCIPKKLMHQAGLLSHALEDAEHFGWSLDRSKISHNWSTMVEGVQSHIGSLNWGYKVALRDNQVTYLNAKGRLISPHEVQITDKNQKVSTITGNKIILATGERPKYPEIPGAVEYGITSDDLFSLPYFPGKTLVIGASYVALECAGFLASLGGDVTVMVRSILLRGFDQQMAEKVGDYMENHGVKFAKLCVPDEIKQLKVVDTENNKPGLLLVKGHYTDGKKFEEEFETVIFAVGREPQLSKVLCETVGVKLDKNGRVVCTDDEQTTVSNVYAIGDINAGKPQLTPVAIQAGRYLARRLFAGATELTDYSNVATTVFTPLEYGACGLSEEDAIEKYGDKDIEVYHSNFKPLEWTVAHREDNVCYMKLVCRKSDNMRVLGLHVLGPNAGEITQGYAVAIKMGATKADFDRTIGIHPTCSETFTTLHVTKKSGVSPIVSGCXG
It counts as biochemical.

The target in assay [2] is T1, S. mansoni TGR/Prx2.
The target of the next assay is T2, TGR (Schistosoma mansoni, UniProt Q962Y6).
T2 sequence (Q962Y6 1-598): T1 sequence (Q962Y6 1-598)

Setting [3] is: initial high throughput screen of the collection, 25 nM TGR, 50 nM Prx2, read-out: qHTS IC50.
The mark [4] stands for this setting: DTNB as substrate, 15 nM TGR, read-out: TGR Assay IC50.

For `CC1COc2c(N3CCN(C)CC3)c(F)cc3c(=O)c(C(=O)O)cn1c23` (centres unmarked) [Ofloxacin, reference compound], at S. mansoni TGR/Prx2 [1] (primary screen), the “activity in qHTS” value was “apparent activator”.

In the case of `O=C([O-])[C@H]([O-])[C@@H]([O-])C(=O)[O-].O=C([O-])[C@H]([O-])[C@@H]([O-])C(=O)[O-].[K+].[K+].[Sb+3].[Sb+3]` [PAT, potassium antimonyl tartrate, reference compound], at S. mansoni TGR/Prx2 [1] (read-out: average IC50 of intraplate control titration), the IC50 amounted to 0.014 ± 0.008 µM.

Take `O=P(Nc1ccccc1F)(c1ccccc1)c1nc2ccccc2s1` (centres unmarked) [compound 2]: the IC50 against S. mansoni TGR/Prx2 [2] came out at 23 µM; against TGR, 12 µM.

Take `O=C(c1ccco1)c1no[n+]([O-])c1C(=O)c1ccco1` [compound 5]: the IC50 at S. mansoni TGR/Prx2 [2] is 1.5 µM; against TGR, 0.025 µM.

In the case of `Cc1nn(C)cc1C(=O)c1no[n+]([O-])c1C(=O)c1cn(C)nc1C` [compound 6], the IC50 at S. mansoni TGR/Prx2 [1] (setting [3]) came to 24 µM; on TGR (setting [4]), 2 µM.

Consider `O=C(c1cccs1)c1no[n+]([O-])c1C(=O)c1cccs1` [compound 7], for which the results for the IC50 at S. mansoni TGR/Prx2 [1] (setting [3]), on S. mansoni TGR/Prx2 [2] and on TGR (setting [4]) were 9.2 µM, 1.5 µM and 0.02 µM, respectively.

`COc1ccc(C(=O)c2no[n+]([O-])c2C(=O)c2ccc(OC)cc2)cc1` [compound 8]: the figures for the IC50 at S. mansoni TGR/Prx2 [1] (setting [3]), against S. mansoni TGR/Prx2 [2] and on TGR (setting [4]) were 10 µM, 4.7 µM and 0.06 µM, respectively.

In the case of `N#Cc1c(-c2ccccc2)no[n+]1[O-]` [compound 9], the values for the IC50 against S. mansoni TGR/Prx2 [1] and on TGR were 8.7 µM and 1.8 µM, respectively.

On to `CCOC(=O)C(C(=O)OCC)c1cc(Br)c2noc3c2c1C(=O)c1ccccc1-3` [compound 10], for which the IC50 at S. mansoni TGR/Prx2 [1] is 0.53 µM; at S. mansoni TGR/Prx2 [2], > 57 µM; at TGR, 9 µM.

In the case of `COC(=O)C(C(=O)OC)c1cc(Br)c2noc3c2c1C(=O)c1ccccc1-3` [compound 11], the IC50 stood at 0.12 µM against S. mansoni TGR/Prx2 [2] and 0.08 µM against TGR.

On to `CCCCOc1cc(Br)c2noc3c2c1C(=O)c1ccccc1-3` [compound 12], for which the values for the IC50 on S. mansoni TGR/Prx2 [2] (read-out: Confirmation IC50) and on TGR (setting [4]) were 0.84 µM and 0.15 µM, respectively.

As for `CC1=CC(=O)NP(=O)(Oc2ccc(Cl)cc2)N1` (centres unmarked) [compound 13], the IC50 against S. mansoni TGR/Prx2 [2] is 0.42 µM; on TGR, 0.55 µM.

Consider `CC1=CC(=O)NP(=O)(Oc2ccccc2)N1` (centres unmarked) [compound 15], for which the values for the IC50 at S. mansoni TGR/Prx2 [2] and against TGR were 2 µM and 4 µM, respectively.

With `CCOc1ccc(OP2(=O)NC(=O)C=C(C)N2)cc1` (centres unmarked) [compound 16], the IC50 against S. mansoni TGR/Prx2 [2] came to 0.18 µM; against TGR it was 0.6 µM.
